According to PubChem BioAssay AID248 (DTP/NCI, 2004):
“And” between values parts separate entries of the source, which are not always exact repeats. Identical values can stand only once. Inconclusive results and toxic doses are left out. No stated cut-off is given here; in the data, active means T/C of 150% or more; inactive means T/C below 125%.

Test system: L1210 leukemia ip in BDF1 mice, survival T/C
Experiment: NCI In Vivo Anticancer Drug Screen. Data for tumor model L1210 Leukemia (intraperitoneal) in B6D2F1 (BDF1) mice
Conditions: endpoint: mean survival time, higher = longer survival
In short: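 Ratio derived from survival: compound-dosed mice over vehicle-dosed mice, all bearing a transplantable tumor.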

[1] = dose: 50.0 mg/kg/injection, schedule: Q04DX002 (ip), vehicle: saline
[2] = dose: 100.0 mg/kg/injection, schedule: Q01DX001 (ip), vehicle: saline
[3] = dose: 100.0 mg/kg/injection, schedule: Q04DX002 (ip), vehicle: saline
[4] = dose: 100.0 mg/kg/injection, schedule: Q04DX003 (ip), vehicle: saline
[5] = dose: 200.0 mg/kg/injection, schedule: Q01DX001 (ip), vehicle: saline
[6] = dose: 200.0 mg/kg/injection, schedule: Q04DX002 (ip), vehicle: saline
[7] = dose: 200.0 mg/kg/injection, schedule: Q04DX003 (ip), vehicle: saline
[8] = dose: 400.0 mg/kg/injection, schedule: Q01DX001 (ip), vehicle: saline
[9] = dose: 400.0 mg/kg/injection, schedule: Q04DX002 (ip), vehicle: saline
[10] = dose: 400.0 mg/kg/injection, schedule: Q04DX003 (ip), vehicle: saline
[11] = dose: 100.0 mg/kg/injection, schedule: Q01DX001 (ip), vehicle: carboxymethylcellulose (CMC)
[12] = dose: 200.0 mg/kg/injection, schedule: Q01DX001 (ip), vehicle: carboxymethylcellulose (CMC)
[13] = dose: 400.0 mg/kg/injection, schedule: Q01DX001 (ip), vehicle: carboxymethylcellulose (CMC)
[14] = dose: 100.0 mg/kg/injection, schedule: Q01DX001 (ip), vehicle: saline with Tween-80
[15] = dose: 200.0 mg/kg/injection, schedule: Q01DX001 (ip), vehicle: saline with Tween-80
[16] = dose: 100.0 mg/kg/injection, schedule: Q04DX003 (ip), vehicle: Klucel (hydroxypropylcellulose) (HPC)
[17] = dose: 200.0 mg/kg/injection, schedule: Q04DX003 (ip), vehicle: Klucel (hydroxypropylcellulose) (HPC)
[18] = dose: 50.0 mg/kg/injection, schedule: Q01DX009 (ip), vehicle: Klucel (hydroxypropylcellulose) (HPC)

Measured: T/C

NC(N)=NCCCC(N)C(=O)O (stereo not given)
inactive: dose: 25.0 mg/kg/injection, schedule: Q04DX002 (ip), vehicle: saline 97 % of control | [1] 113 % of control | [2] 97 % of control | dose: 100.0 mg/kg/injection, schedule: Q01DX009 (ip), vehicle: saline 119 % of control | [3] 103 % of control and 97 % of control | [4] 102 % of control and 94 % of control | [5] 100 % of control | dose: 200.0 mg/kg/injection, schedule: Q01DX009 (ip), vehicle: saline 95 % of control | [6] 94 % of control | [7] 105 % of control and 90 % of control | [8] 103 % of control | dose: 400.0 mg/kg/injection, schedule: Q01DX009 (ip), vehicle: saline 97 % of control | [9] 94 % of control | [10] 109 % of control and 97 % of control

N#CC(Cc1ccccc1)C(=O)O (stereo not given)
inactive: dose: 50.0 mg/kg/injection, schedule: Q01DX Z (ip), vehicle: saline 106 % of control | dose: 100.0 mg/kg/injection, schedule: Q01DX Z (ip), vehicle: saline 102 % of control | dose: 200.0 mg/kg/injection, schedule: Q01DX Z (ip), vehicle: saline 91 % of control

COC1OC(COC(=O)c2ccc([N+](=O)[O-])cc2)C2OC12 (stereo not given)
inactive: [11] 100 % of control | [2] 101 % of control | [12] 95 % of control | [5] 101 % of control and 109 % of control | [13] 89 % of control | [8] 101 % of control

CNC1C(O)C(OC2C(N)CC(N)C(OC3OC(CN)C(O)C(O)C3O)C2O)OCC1(C)O (stereo not given)
inactive: [3] 116 % of control | [6] 100 % of control | [9] 95 % of control

NC(=O)N/N=C1\CCCC(CCC(=O)O)C1 (stereo not given)
inactive: dose: 75.0 mg/kg/injection, schedule: Q01DX009 (ip), vehicle: other 101 % of control | [2] 89 % of control | dose: 150.0 mg/kg/injection, schedule: Q01DX009 (ip), vehicle: other 93 % of control | [5] 108 % of control | dose: 300.0 mg/kg/injection, schedule: Q01DX009 (ip), vehicle: other 94 % of control | [8] 100 % of control

O=c1cc(NCc2ccc(Cl)cc2)[nH]c(=O)[nH]1
inactive: [14] 108 % of control | [15] 95 % of control | dose: 400.0 mg/kg/injection, schedule: Q01DX001 (ip), vehicle: saline with Tween-80 98 % of control

CN1CCCCC1C(O)CO (stereo not given)
inactive: [4] 103 % of control | [7] 102 % of control | [10] 100 % of control

Cc1ccc(-c2cc(=S)ss2)cc1
inactive: [11] 100 % of control | [12] 92 % of control | [13] 94 % of control

CCCCCC(O)C(O)CC(O)C(O)CCCCCCCC(=O)O (stereo not given)
inactive: [2] 89 % of control | [5] 105 % of control | [8] 96 % of control

C[Si](C)(C)OC(C(F)(F)F)C(F)(F)F
inactive: dose: 100.0 mg/kg/injection, schedule: Q01DX001 (ip), vehicle: steriod suspending solution 98 % of control | dose: 200.0 mg/kg/injection, schedule: Q01DX001 (ip), vehicle: steriod suspending solution 96 % of control | dose: 400.0 mg/kg/injection, schedule: Q01DX001 (ip), vehicle: steriod suspending solution 86 % of control

CCOC(=O)C1(C(=O)OCC)COC(=O)C2(CC)OC21 (stereo not given)
inactive: [2] 107 % of control | [5] 98 % of control | [8] 109 % of control

Nc1ccn(CC(=O)N2CCOCC2)c(=O)n1
inactive: dose: 25.0 mg/kg/injection, schedule: Q01DX009 (ip), vehicle: water 93 % of control | dose: 50.0 mg/kg/injection, schedule: Q01DX009 (ip), vehicle: water 87 % of control | dose: 100.0 mg/kg/injection, schedule: Q01DX009 (ip), vehicle: water 87 % of control | dose: 200.0 mg/kg/injection, schedule: Q01DX009 (ip), vehicle: water 93 % of control | dose: 400.0 mg/kg/injection, schedule: Q01DX009 (ip), vehicle: water 88 % of control

CC(=O)N1C(=O)C(Cl)C(Cl)C(=O)N1C(C)=O (stereo not given)
inactive: [16] 89 % of control | [17] 89 % of control

CS(=O)(=O)OCOS(C)(=O)=O
inactive: dose: 12.5 mg/kg/injection, schedule: Q01DX009 (ip), vehicle: Klucel (hydroxypropylcellulose) (HPC) 104 % of control | dose: 12.5 mg/kg/injection, schedule: Q01DX009 (ip), vehicle: saline 96 % of control | dose: 25.0 mg/kg/injection, schedule: Q01DX009 (ip), vehicle: Klucel (hydroxypropylcellulose) (HPC) 101 % of control | dose: 25.0 mg/kg/injection, schedule: Q01DX009 (ip), vehicle: saline 100 % of control | [18] 120 % of control | [1] 119 % of control

CC(=O)Nc1ccc(NC(=O)c2cccc3ccccc23)cc1
inactive: [18] 90 % of control | dose: 100.0 mg/kg/injection, schedule: Q01DX009 (ip), vehicle: Klucel (hydroxypropylcellulose) (HPC) 98 % of control and 86 % of control and 90 % of control | dose: 200.0 mg/kg/injection, schedule: Q01DX009 (ip), vehicle: Klucel (hydroxypropylcellulose) (HPC) 86 % of control | dose: 400.0 mg/kg/injection, schedule: Q01DX009 (ip), vehicle: Klucel (hydroxypropylcellulose) (HPC) 87 % of control and 89 % of control

O=C1c2ccccc2C(=O)N1Cc1cccc(Nc2cc(=O)[nH]c(=O)[nH]2)c1
inactive: [15] 95 % of control

O=C(CC(O)(C(F)(F)F)C(F)(F)F)c1ccc(C(=O)CC(O)(C(F)(F)F)C(F)(F)F)cc1
inactive: dose: 50.0 mg/kg/injection, schedule: Q01DX009 (ip), vehicle: other 108 % of control | dose: 100.0 mg/kg/injection, schedule: Q01DX009 (ip), vehicle: other 97 % of control

O=S(=O)(O)c1ccc(N=Nc2ccc(O)c(Cl)c2)cc1
inactive: dose: 55.0 mg/kg/injection, schedule: Q01DX Z (ip), vehicle: methylcellulose (MC) 94 % of control | dose: 83.0 mg/kg/injection, schedule: Q01DX Z (ip), vehicle: methylcellulose (MC) 96 % of control | dose: 125.0 mg/kg/injection, schedule: Q01DX Z (ip), vehicle: methylcellulose (MC) 106 % of control

CC(C)(C)C(=O)CC(=O)C(C)(C)C.CC(C)(C)C(=O)CC(=O)C(C)(C)C.CC(C)(C)C(=O)CC(=O)C(C)(C)C.[Ho]
inactive: dose: 100.0 mg/kg/injection, schedule: Q04DX003 (ip), vehicle: saline with Tween-80 94 % of control | dose: 200.0 mg/kg/injection, schedule: Q04DX003 (ip), vehicle: saline with Tween-80 105 % of control | dose: 400.0 mg/kg/injection, schedule: Q04DX003 (ip), vehicle: saline with Tween-80 95 % of control

COc1ccc2c(c1)Cc1c-2nc2ccccc2c1Cl
inactive: dose: 50.0 mg/kg/injection, schedule: Q01DX001 (ip), vehicle: saline 101 % of control | [2] 93 % of control | [5] 96 % of control | [8] 100 % of control

O=C(NCCc1ccccc1)Nc1cc([N+](=O)[O-])ccc1F
inactive: [16] 94 % of control | [17] 96 % of control | dose: 400.0 mg/kg/injection, schedule: Q04DX003 (ip), vehicle: Klucel (hydroxypropylcellulose) (HPC) 102 % of control

CCCOc1ccc(C)cc1
inactive: [2] 93 % of control | [5] 108 % of control

CS(=O)(=O)CC1OC(n2nnc3c(N)ncnc32)C(O)C1O (stereo not given)
inactive: dose: 50.0 mg/kg/injection, schedule: Q01DX001 (ip), vehicle: saline with Tween-80 94 % of control | [14] 102 % of control | [15] 94 % of control

O=C1CC(C(=O)O)C(C(=O)O)C1 (stereo not given)
inactive: [2] 91 % of control | [5] 91 % of control
